Reference: US7402548B2, “Benzoxazole compounds, process for producing the same and herbicides” (Kyoyu Agri Co., Ltd., priority 2000, dated 2008)

How the values were obtained:
barnyard grass [1] = test: Herbicidal test for paddy field; format: in vivo, Eschinochloa crusgalli; settings: 500 g/ha, dropwise addition to paddy water at 1.5 leaf stage of barnyard grass; glass house 25° C., 3 weeks; rank 0-5 vs non-treated district
Experimental: (§1) Wagner pots, each having an area of 1/5000 are, were packed with Ube soil (alluvial soil) and planted with seeds or tubers of young rice plant, barnyard grass, bulrush, Cyperus serotinus Rottb., arrowhead and monochoria. Then, the pots were filled with water to a depth of 3 cm.
(§2) Each wettable powder of the desired Compounds (I) shown in Tables 1 to 21, 24, 25, 28 and 29 prepared in accordance with Example 2 was diluted with water containing a surfactant (0.05%) and subjected to dropwise addition treatment by using pipet so that an effective concentration of the compound (I) in each herbicide became 500 g/ha at 1.5 leaf stage of barnyard grass.
(§3) These plants were controlled in a glass house at an average temperature of 25° C. for 3 weeks, and then herbicidal effects thereof were investigated.
(§4) The herbicidal effects are evaluated according to the following 6 ranks as compared with non-treated district. (0: normal development, 1: Less damaged, 2: Slightly damaged, 3: Moderately damaged, 4: Severely damaged, 5: All killed). Incidentally, “-” in the column means not investigated.

bulrush = test: Herbicidal test for paddy field; format: in vivo, Scrips juncoides; settings: 500 g/ha, dropwise addition to paddy water at 1.5 leaf stage of barnyard grass; glass house 25° C., 3 weeks; rank 0-5 vs non-treated district
Experimental: as §1, §2, §3, §4

corn [2] = test: Soil treatment test for upland field; format: in vivo; set-up: key: 0 = normal development, 5 = all killed; settings: 500 g/ha, 3 weeks, glass house 25° C.
Outline: (§5)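 Seeds were sown in alluvial soil in pots, and a wettable powder diluted in water with 0.05% surfactant was sprayed evenly on the soil surface at 500 g/ha. Plants were kept in a glass house at about 25° C for 3 weeks, then damage was scored 0–5 against untreated controls.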

solgum [3] = test: Soil treatment test for upland field; format: in vivo; set-up: key: 0 = normal development, 5 = all killed; settings: 500 g/ha, 3 weeks, glass house 25° C.
Outline: as §5

sugar beat [4] = test: Soil treatment test for upland field; format: in vivo; set-up: key: 0 = normal development, 5 = all killed; settings: 500 g/ha, 3 weeks, glass house 25° C.
Outline: as §5

wheat [5] = test: Soil treatment test for upland field; format: in vivo; set-up: key: 0 = normal development, 5 = all killed; settings: 500 g/ha, 3 weeks, glass house 25° C.
Outline: as §5

Large crabgrass [6] = test: Soil treatment test for upland field; format: in vivo, Digitaria adscendens; set-up: key: 0 = normal development, 5 = all killed; settings: 500 g/ha, 3 weeks, glass house 25° C.
Outline: as §5

barnyard grass [7] = test: Soil treatment test for upland field; format: in vivo, Eschinochloa crusgalli; set-up: key: 0 = normal development, 5 = all killed; settings: 500 g/ha, 3 weeks, glass house 25° C.
Outline: as §5

green foxtail [8] = test: Soil treatment test for upland field; format: in vivo, Setaria viridis; set-up: key: 0 = normal development, 5 = all killed; settings: 500 g/ha, 3 weeks, glass house 25° C.
Outline: as §5

blackgrass [9] = test: Soil treatment test for upland field; format: in vivo, Alopecurus aegualis; set-up: key: 0 = normal development, 5 = all killed; settings: 500 g/ha, 3 weeks, glass house 25° C.
Outline: as §5

annual bluegrass [10] = test: Soil treatment test for upland field; format: in vivo, Poa annua; set-up: key: 0 = normal development, 5 = all killed; settings: 500 g/ha, 3 weeks, glass house 25° C.
Outline: as §5

common lambsquarters [11] = test: Soil treatment test for upland field; format: in vivo, Chenopodium album; set-up: key: 0 = normal development, 5 = all killed; settings: 500 g/ha, 3 weeks, glass house 25° C.
Outline: as §5

livid amaranth [12] = test: Soil treatment test for upland field; format: in vivo, Amaranthus lividus; set-up: key: 0 = normal development, 5 = all killed; settings: 500 g/ha, 3 weeks, glass house 25° C.
Outline: as §5

velvetleaf [13] = test: Soil treatment test for upland field; format: in vivo, Abutilon theophrasti; set-up: key: 0 = normal development, 5 = all killed; settings: 500 g/ha, 3 weeks, glass house 25° C.
Outline: as §5

morning glory [14] = test: Soil treatment test for upland field; format: in vivo, Ipomoea spps.; set-up: key: 0 = normal development, 5 = all killed; settings: 500 g/ha, 3 weeks, glass house 25° C.
Outline: as §5

corn [15] = test: Foliar spread test for upland field; format: in vivo; set-up: key: 0 = normal development, 5 = all killed (6 ranks vs. untreated); settings: foliar spray, 500 ppm, 3 weeks, glass house 25° C.
Outline: (§6)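 Plants grown about 2 weeks at 25 °C in volcanic ash soil were sprayed with wettable powder diluted to 500 ppm in water with 0.5% surfactant. After 3 weeks at 25 °C, damage was scored 0 (normal) to 5 (all killed) against untreated plants.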

cotton = test: Foliar spread test for upland field; format: in vivo; set-up: key: 0 = normal development, 5 = all killed (6 ranks vs. untreated); settings: foliar spray, 500 ppm, 3 weeks, glass house 25° C.
Outline: as §6

solgum [16] = test: Foliar spread test for upland field; format: in vivo; set-up: key: 0 = normal development, 5 = all killed (6 ranks vs. untreated); settings: foliar spray, 500 ppm, 3 weeks, glass house 25° C.
Outline: as §6

soybean [17] = test: Foliar spread test for upland field; format: in vivo; set-up: key: 0 = normal development, 5 = all killed (6 ranks vs. untreated); settings: foliar spray, 500 ppm, 3 weeks, glass house 25° C.
Outline: as §6

sugar beat [18] = test: Foliar spread test for upland field; format: in vivo; set-up: key: 0 = normal development, 5 = all killed (6 ranks vs. untreated); settings: foliar spray, 500 ppm, 3 weeks, glass house 25° C.
Outline: as §6

wheat [19] = test: Foliar spread test for upland field; format: in vivo; set-up: key: 0 = normal development, 5 = all killed (6 ranks vs. untreated); settings: foliar spray, 500 ppm, 3 weeks, glass house 25° C.
Outline: as §6

Large crabgrass [20] = test: Foliar spread test for upland field; format: in vivo, Digitaria adscendens; set-up: key: 0 = normal development, 5 = all killed (6 ranks vs. untreated); settings: foliar spray, 500 ppm, 3 weeks, glass house 25° C.
Outline: as §6

barnyardgrjass = test: Foliar spread test for upland field; format: in vivo, Eschinochloa crusgalli; set-up: key: 0 = normal development, 5 = all killed (6 ranks vs. untreated); settings: foliar spray, 500 ppm, 3 weeks, glass house 25° C.
Outline: as §6

green foxtail [21] = test: Foliar spread test for upland field; format: in vivo, Setaria viridis; set-up: key: 0 = normal development, 5 = all killed (6 ranks vs. untreated); settings: foliar spray, 500 ppm, 3 weeks, glass house 25° C.
Outline: as §6

blackgrass [22] = test: Foliar spread test for upland field; format: in vivo, Alopecurus aegualis; set-up: key: 0 = normal development, 5 = all killed (6 ranks vs. untreated); settings: foliar spray, 500 ppm, 3 weeks, glass house 25° C.
Outline: as §6

annual bluegrass [23] = test: Foliar spread test for upland field; format: in vivo, Poa annua; set-up: key: 0 = normal development, 5 = all killed (6 ranks vs. untreated); settings: foliar spray, 500 ppm, 3 weeks, glass house 25° C.
Outline: as §6

common lambsquarters [24] = test: Foliar spread test for upland field; format: in vivo, Chenopodium album; set-up: key: 0 = normal development, 5 = all killed (6 ranks vs. untreated); settings: foliar spray, 500 ppm, 3 weeks, glass house 25° C.
Outline: as §6

livid amaranth [25] = test: Foliar spread test for upland field; format: in vivo, Amaranthus lividus; set-up: key: 0 = normal development, 5 = all killed (6 ranks vs. untreated); settings: foliar spray, 500 ppm, 3 weeks, glass house 25° C.
Outline: as §6

velvetleaf [26] = test: Foliar spread test for upland field; format: in vivo, Abutilon theophrasti; set-up: key: 0 = normal development, 5 = all killed (6 ranks vs. untreated); settings: foliar spray, 500 ppm, 3 weeks, glass house 25° C.
Outline: as §6

morning glory [27] = test: Foliar spread test for upland field; format: in vivo, Ipomoea spps.; set-up: key: 0 = normal development, 5 = all killed (6 ranks vs. untreated); settings: foliar spray, 500 ppm, 3 weeks, glass house 25° C.
Outline: as §6

soybean [28] = test: Soil treatment test for upland field; format: in vivo; set-up: key: 0 = normal development, 5 = all killed; settings: 500 g/ha, 3 weeks, glass house 25° C.
Outline: as §5

CCC(=Cc1cccc(C(F)(F)F)c1)c1nc2cc(F)ccc2o1 [I-c-42]
Effects Barnyardgrass (barnyard grass [1]): 5 | Effects Bulrush (bulrush): 5 | Effects Corn (corn [2]): 1 | Effects Solgum (solgum [3]): 5 | Effects Sugar beat (sugar beat [4]): 5 | Effects Wheat (wheat [5]): 0 | Effects Large crabgrass (Large crabgrass [6]): 5 | Effects Barnyardgrass (barnyard grass [7]): 5 | Effects Green foxtail (green foxtail [8]): 5 | Effects Blackgrass (blackgrass [9]): 5 | Effects Annual bluegrass (annual bluegrass [10]): 5 | Effects Common lambsquarters (common lambsquarters [11]): 5 | Effects Livid amaranth (livid amaranth [12]): 5 | Effects Velvetleaf (velvetleaf [13]): 5 | Effects Morning glory (morning glory [14]): 3 | Effects Corn (corn [15]): 3 | Effects Sotton (cotton): 3 | Effects Solgum (solgum [16]): 2 | Effects Soybean (soybean [17]): 5 | Effects Sugar beat (sugar beat [18]): 4 | Effects Wheat (wheat [19]): 2 | Effects Large crabgrass (Large crabgrass [20]): 4 | Effects Barnyardgrass (barnyardgrjass): 2 | Effects Green foxtail (green foxtail [21]): 4 | Effects Blackgrass (blackgrass [22]): 3 | Effects Annual bluegrass (annual bluegrass [23]): 3 | Effects Common lambsquarters (common lambsquarters [24]): 5 | Effects Livid amaranth (livid amaranth [25]): 5 | Effects Velvetleaf (velvetleaf [26]): 3 | Effects Morning glory (morning glory [27]): 4

CCC(=Cc1cccc(C(F)(F)F)c1)c1nc2cc(C)ccc2o1 [I-c-76]
Effects Barnyardgrass (barnyard grass [1]): 4 | Effects Bulrush (bulrush): 3 | Effects Corn (corn [2]): 1 | Effects Solgum (solgum [3]): 3 | Effects Sugar beat (sugar beat [4]): 0 | Effects Wheat (wheat [5]): 0 | Effects Large crabgrass (Large crabgrass [6]): 5 | Effects Barnyardgrass (barnyard grass [7]): 4 | Effects Green foxtail (green foxtail [8]): 5 | Effects Blackgrass (blackgrass [9]): 5 | Effects Annual bluegrass (annual bluegrass [10]): 5 | Effects Common lambsquarters (common lambsquarters [11]): 5 | Effects Livid amaranth (livid amaranth [12]): 5 | Effects Velvetleaf (velvetleaf [13]): 5 | Effects Morning glory (morning glory [14]): 1 | Effects Corn (corn [15]): 2 | Effects Sotton (cotton): 3 | Effects Solgum (solgum [16]): 2 | Effects Soybean (soybean [17]): 5 | Effects Sugar beat (sugar beat [18]): 4 | Effects Wheat (wheat [19]): 2 | Effects Large crabgrass (Large crabgrass [20]): 4 | Effects Barnyardgrass (barnyardgrjass): 2 | Effects Green foxtail (green foxtail [21]): 4 | Effects Blackgrass (blackgrass [22]): 2 | Effects Annual bluegrass (annual bluegrass [23]): 2 | Effects Common lambsquarters (common lambsquarters [24]): 4 | Effects Livid amaranth (livid amaranth [25]): 5 | Effects Velvetleaf (velvetleaf [26]): 3 | Effects Morning glory (morning glory [27]): 5

CCC(=Cc1cccc(C(F)(F)F)c1)c1nc2cc(C#N)c(Cl)cc2o1 [I-c-143]
Effects Barnyardgrass (barnyard grass [1]): 5 | Effects Bulrush (bulrush): 5 | Effects Corn (corn [2]): 1 | Effects Solgum (solgum [3]): 3 | Effects Soybean (soybean [28]): 3 | Effects Sugar beat (sugar beat [4]): 5 | Effects Wheat (wheat [5]): 1 | Effects Large crabgrass (Large crabgrass [6]): 5 | Effects Barnyardgrass (barnyard grass [7]): 4 | Effects Green foxtail (green foxtail [8]): 5 | Effects Blackgrass (blackgrass [9]): 4 | Effects Annual bluegrass (annual bluegrass [10]): 5 | Effects Common lambsquarters (common lambsquarters [11]): 5 | Effects Livid amaranth (livid amaranth [12]): 5 | Effects Velvetleaf (velvetleaf [13]): 5 | Effects Morning glory (morning glory [14]): 5

CCCC(=Cc1cccc(C(F)(F)F)c1)c1nc2cc(C#N)c(Cl)cc2o1 [I-c-145]
Effects Barnyardgrass (barnyard grass [1]): 4 | Effects Bulrush (bulrush): 3 | Effects Corn (corn [2]): 0 | Effects Solgum (solgum [3]): 1 | Effects Soybean (soybean [28]): 0 | Effects Sugar beat (sugar beat [4]): 5 | Effects Wheat (wheat [5]): 1 | Effects Large crabgrass (Large crabgrass [6]): 5 | Effects Barnyardgrass (barnyard grass [7]): 4 | Effects Green foxtail (green foxtail [8]): 5 | Effects Blackgrass (blackgrass [9]): 5 | Effects Annual bluegrass (annual bluegrass [10]): 5 | Effects Common lambsquarters (common lambsquarters [11]): 5 | Effects Livid amaranth (livid amaranth [12]): 5 | Effects Velvetleaf (velvetleaf [13]): 5 | Effects Morning glory (morning glory [14]): 5 | Effects Corn (corn [15]): 2 | Effects Sotton (cotton): 4 | Effects Solgum (solgum [16]): 2 | Effects Soybean (soybean [17]): 5 | Effects Sugar beat (sugar beat [18]): 3 | Effects Wheat (wheat [19]): 2 | Effects Large crabgrass (Large crabgrass [20]): 3 | Effects Barnyardgrass (barnyardgrjass): 2 | Effects Green foxtail (green foxtail [21]): 5 | Effects Blackgrass (blackgrass [22]): 2 | Effects Annual bluegrass (annual bluegrass [23]): 3 | Effects Common lambsquarters (common lambsquarters [24]): 5 | Effects Livid amaranth (livid amaranth [25]): 5 | Effects Velvetleaf (velvetleaf [26]): 3 | Effects Morning glory (morning glory [27]): 5
